Results from patent US11103509B2 (University of Kentucky Research Foundation, priority 2018, dated 2021).
Where two headings read alike, the source gives them in different places.

Target: T1, human mPGES-1 (Homo sapiens, UniProt O14684)
T1 construct: made in house
T1 sequence (O14684 1-152): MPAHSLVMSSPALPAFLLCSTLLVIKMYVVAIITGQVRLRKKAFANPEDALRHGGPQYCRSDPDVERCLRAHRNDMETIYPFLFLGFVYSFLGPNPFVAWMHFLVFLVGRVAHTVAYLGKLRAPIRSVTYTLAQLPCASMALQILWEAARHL
Assay: in vitro inhibitory activity against human mPGES-1 (PGE2 enzyme immunoassay)
Format: biochemical
Details: for inhibition at 10 µM: read-out: Inhibition (%) at 10 μM
Procedure: The above computational predictions were followed by in vitro activity assays for their actual inhibitory activity against human mPGES-1 using an ELISA assay previously-described.^16-17, 19 Specifically, a total of 18 FDA-approved drugs were assayed for their inhibitory activity against human mPGES-1.
The protocol for the protein preparation and in vitro activity assays were the same as described previously.^69-72 The enzyme activity assays were performed on ice in 1.5 ml microfuge tubes by using the expressed human mPGES-1. The reaction mixture contained: 0.2 M Na2HPO4/NaH2PO4, pH 7.2, 10 μL; 0.1 M GSH, 2.5 μL; diluted microsomal enzyme (80 μg/mL), 1 μL; PGH2 (0.31 mM in DMF), 5 μL; 1 μL inhibitor; and H2O in a final reaction volume of 100 μL. PGH2 was stored in dry ice and used to initiate the reaction. Compounds were incubated with the enzyme for 15 min at room temperature before the addition of cold PGH2 (1 μM final) to initiate the enzyme reaction. After 30 s, 10 μL of SnCl2 (40 mg/mL) in ethanol was added to stop the reaction. The non-enzymatic conversion of PGH2 to PGE2 was performed in the same buffer devoid of enzyme. The reaction mixture was placed on ice until PGE2 production was determined by the PGE2 enzyme immunoassay as described earlier. IC50 values of the inhibitors were calculated by using the GraphPad Prism 6.0.

[1] = 10 μM, single-concentration screening

Compound | inhibition at 10 µM [1] [%] | IC50 [µM] | Inhibition (%) at 10 μM [1] [%] | inhibition at 10 µM [%]
CCCCC[C@H](O)/C=C/[C@H]1[C@H](O)CC(=O)[C@@H]1CCCCCCC(=O)O [Alprostadil] | 11 | – | – | –
COc1cc2nc(N3CCN(C(=O)C4COc5ccccc5O4)CC3)nc(N)c2cc1OC (centres unmarked) [Doxazosin] | 21 | – | – | –
COCC1=C(C(=O)OC(C)OC(=O)OC(C)C)N2C(=O)[C@@H](NC(=O)/C(=N\OC)c3csc(N)n3)[C@H]2SC1 (some centres unmarked) [Cefpodoxime Proxetil] | 47 | 29.7 ± 6.3 | – | –
OCCN(CCO)c1nc(N2CCCCC2)c2nc(N(CCO)CCO)nc(N3CCCCC3)c2n1 [Dipyridamole] | 36 | – | – | –
COc1cc2nc(N(C)CCCNC(=O)C3CCCO3)nc(N)c2cc1OC (centres unmarked) [Alfuzosin] | 22 | – | – | –
C=C1/C(=C\C=C2/CCC[C@]3(C)[C@@H]([C@H](C)/C=C/[C@@H](O)C4CC4)CC[C@@H]23)C[C@@H](O)C[C@@H]1O [Calcipotriene] | 68 | 3 ± 1.1 | – | –
CCOC(=O)[C@H](CCc1ccccc1)N[C@@H](C)C(=O)N1[C@H](C(=O)O)C[C@H]2CCCC[C@@H]21 [Trandolapril] | 54 | 9 ± 2.3 | – | –
Cc1ccccc1C(=O)Nc1ccc(C(=O)N2CCCC(O)c3cc(Cl)ccc32)c(C)c1 (centres unmarked) [Tolvaptan] | 52 | 10.2 ± 2.5 | – | –
C[C@]12C=CC(=O)C=C1CC[C@@H]1[C@@H]2[C@@H](O)C[C@@]2(C)[C@H]1CC[C@]2(O)C(=O)CO [Prednisolone] | 44 | – | – | –
CC(C)(C)C(=O)OCOP(=O)(COCCn1cnc2c(N)ncnc21)OCOC(=O)C(C)(C)C [Adefovir Dipivoxil] | 19 | – | – | –
COc1cc(C)c(/C=C/C(C)=C/C=C/C(C)=C/C(=O)O)c(C)c1C [Acitretin] | 83 | 3.5 ± 1.6 | – | –
CC1(C)S[C@@H]2[C@H](NC(=O)COc3ccccc3)C(=O)N2[C@H]1C(=O)[O-].[K+] [Penicillin V Potassium] | – | – | 36 | –
CO[C@@]1(NC(=O)C2SC(=C(C(N)=O)C(=O)[O-])S2)C(=O)N2C(C(=O)[O-])=C(CSc3nnnn3C)CS[C@@H]21.[Na+].[Na+] (some centres unmarked) [Cefotetan Disodium] | – | 13.5 ± 4 | 44 | –
CCCCC[C@H](O)/C=C/[C@H]1[C@H](O)CC(=O)[C@@H]1C/C=C\CCCC(=O)O [Dinoprostone] | 4 | – | – | –
C[C@]12CC[C@@H]3c4ccc(OC(=O)N(CCCl)CCCl)cc4CC[C@H]3[C@@H]1CC[C@@H]2OP(=O)(O)O [Estramustine Phosphate] | – | – | – | 36
CO/N=C(\C(=O)N[C@@H]1C(=O)N2C(C(=O)O)=C(CSc3nc(=O)c(=O)[nH]n3C)CS[C@H]12)c1csc(N)n1 [Ceftriaxone] | 57 | 7.2 ± 2.4 | – | –
C[C@H]1[C@H](NC(=O)/C(=N\OC(C)(C)C(=O)O)c2csc(N)n2)C(=O)N1S(=O)(=O)O [Aztreonam] | 53 | 11.4 ± 1.1 | – | –
CS(=O)(=O)CCNCc1ccc(-c2ccc3ncnc(Nc4ccc(OCc5cccc(F)c5)c(Cl)c4)c3c2)o1 [Lapatinib Ditosylate] | 99 | – | – | –
